# Source: patent US8691854B2, “Chemical compounds and the uses thereof as a medicine” (Trophos, priority 2005, dated 2014)
# Tested on: primary neurones isolated from rat striatum expressing mutated huntingtin
# Assay: Protection of striatum neurones in a death test induced by over-expression of a mutated form of huntingtin, GFP as reporter gene
# Assay type: cell-based
# Conditions: 0.3 μM compound; survival of GFP-positive cells minus DMSO, relative to BDNF (5 ng/ml) minus DMSO; active when ratio larger than 0.2
# Description: Evaluation of the Protection Provided by the Compound of Formula I on Striatum Neurones in a Death Test Induced by Over-Expression of a Mutated Form of Huntingtine by Using GFP as Reporter Gene
# Primary cultures of striatum neurones are prepared as described in the literature (Mao L. et al., Methods Mol. Med., 2003, 79: 379-86).
# Before sowing, an expression vector containing a promoter element followed by the DNA coding for a truncated form of huntingtin which comprises the first 480 amino acids and 68 CAG codons (Saudou et al., Cell, 1998, 95:55-66), purified beforehand, is introduced by electroporation according to the procedure described by Raoul et al., (Neuron, 2002, 35:1067-83).
# A second expression vector, also purified beforehand, containing DNA coding for the green fluorescent protein (GFP) (Columbia University) is also electroporated and is used as a reporter gene.
# The cells which survive electroporation are sown at a density of 4,000 cells per well on 96-well plates. The culture is achieved in 175 μl of Neurobasal medium (GIBCO) complemented with final 1 mM of pyruvate and with B-27 1/100 (Beckton Dickinson). The cells are maintained in the culture for 6 days without changing the medium.
# […] Positive controls are made by adding BDNF (Brain-Derived Neurotrophic Factor) at 5 ng/ml (Tebu) finally. The negative controls only receive 0.5% DMSO.
# Cell death is evaluated after 7 days by counting the number of living cells expressing GFP.
# The activity of the compounds to be tested was evaluated by their capability of preventing death of striatum neurones grown in the Neurobasal medium, as compared with survival of striatum neurones in a medium supplemented with BDNF.
# The results are expressed as a ratio evaluating survival of positive GFP cells in the presence of the compound to be tested. This is therefore the number of living cells after treatment with the compound to be tested, reduced by the number of living cells after treatment with DMSO, based on (divided by) the number of survival cells after treatment with BDNF, reduced by the number of living cells after treatment with DMSO.
# This ratio therefore represents the survival percentage due to the tested compound relatively to survival induced by BDNF.
# In this test, a compound is considered as being active when said ratio is larger than 0.2 i.e. when it has a neuroprotective activity at least equal to 20% of the neuroprotective activity of BDNF.
row,Compound,GFP ratio
1,CS(=O)(=O)c1cccc(C=CC=NNc2nc(-c3ccc(C(F)(F)F)cc3)cs2)c1 [Example 24],>0.2
2,FC(F)(F)c1ccc(-c2csc(NN=CC=Cc3ccccn3)n2)cc1 [Example 26],>0.2

# Same assay, conditions: 1 μM compound; survival of GFP-positive cells minus DMSO, relative to BDNF (5 ng/ml) minus DMSO; active when ratio larger than 0.2
row,Compound,GFP ratio
1,Fc1ccccc1C=CC=NNc1nc(-c2ccc(Cl)cc2)cs1 [Example 1],>0.2
2,N#Cc1cccc(C=CC=NNc2nc(-c3ccc(Cl)cc3)cs2)c1 [Example 10],>0.2
3,N#Cc1cccc(C=CC=NNc2nc(-c3ccc(C(F)(F)F)cc3)cs2)c1 [Example 11],>0.2
4,O=[N+]([O-])c1cccc(C=CC=NNc2nc(-c3ccc(C(F)(F)F)cc3)cs2)c1 [Example 13],>0.2
5,Nc1cccc(C=CC=NNc2nc(-c3ccc(Cl)cc3)cs2)c1 [Example 14],>0.2
6,Nc1cccc(C=CC=NNc2nc(-c3ccc(C(F)(F)F)cc3)cs2)c1 [Example 17],>0.2
7,CS(=O)(=O)c1cccc(C=CC=NNc2nc(-c3ccc(Cl)cc3)cs2)c1 [Example 18],>0.2
8,FC(F)(F)c1ccc(-c2csc(NN=CC=Cc3ccc4c(c3)OCO4)n2)cc1 [Example 21],>0.2
9,Clc1ccc(-c2csc(NN=CC=Cc3ccccn3)n2)cc1 [Example 25],>0.2

# Same assay, conditions: 3 μM compound; survival of GFP-positive cells minus DMSO, relative to BDNF (5 ng/ml) minus DMSO; active when ratio larger than 0.2
row,Compound,GFP ratio
1,3-(3-nitrophenyl)-2-propenal-[4-(4-chlorophenyl-2-thiazolyl)hydrazone [Example 2],>0.2
2,COc1ccccc1C=CC=NNc1nc(-c2ccc(Cl)cc2)cs1 [Example 3],>0.2
3,Oc1cccc(-c2csc(NN=CC=Cc3ccccc3)n2)c1 [Example 7],>0.2
4,Cc1ccccc1C=CC=NNc1nc(-c2ccc(Cl)cc2)cs1 [Example 9],>0.2
5,FC(F)(F)c1ccc(-c2csc(NN=CC=Cc3ccncc3)n2)cc1 [Example 16],>0.2
6,N#Cc1cccc(C=CC=NNc2nc(-c3cccc(O)c3)cs2)c1 [Example 19],>0.2
7,COc1cc(Cl)ccc1-c1csc(NN=CC=Cc2ccccc2)n1 [Example 22],>0.2
8,Fc1ccc(C=CC=NNc2nc(-c3ccc(C(F)(F)F)cc3)cs2)cc1 [Example 29],>0.2

# Same assay, conditions: 10 μM compound; survival of GFP-positive cells minus DMSO, relative to BDNF (5 ng/ml) minus DMSO; active when ratio larger than 0.2
row,Compound,GFP ratio
1,3-(2-chlorophenyl)-2-propenal-[4-(4-chlorophenyl-2-thiazolyl)hydrazone [Example 12],>0.2
2,COc1cccc(C=CC=NNc2nc(-c3ccc(Cl)cc3)cs2)c1 [Example 6],>0.2
3,Clc1ccc(-c2csc(NN=CC=Cc3ccncc3)n2)cc1 [Example 8],>0.2
